Measurements from US10961309B2, “Reducing systemic regulatory T cell levels or activity for treatment of disease and injury of the CNS” (Yeda Research and Development Co. Ltd, priority 2014, dated 2021).

What was measured:
Assay type in all cases: in vivo, mouse
[1] = test system: soluble Aβ1-40 and Aβ1-42; experiment: Soluble Aβ (sAβ) protein quantification by ELISA; settings: 3 weeks after 1 week ATRA treatment, AD-Tg mice
Experimental: Tissue homogenization and sAβ protein extraction was performed as previously described (Schmidt et al, 2005). Briefly, cerebral brain parenchyma was dissected and snap-frozen and kept at −80° C. until homogenization. Proteins were sequentially extracted from samples to obtain separate fractions containing proteins of differing solubility. Samples were homogenized in 10 volumes of ice-cold tissue homogenization buffer, containing 250 mM of sucrose, 20 mM of Tris base, 1 mM of ethylenediaminetetraacetic acid (EDTA), and 1 mM of ethylene glycol tetraacetic acid (pH 7.4), using a ground glass pestle in a Dounce homogenizer. After six strokes, the homogenate was mixed 1:1 with 0.4% diethylamine (DEA) in a 100-mM NaCl solution before an additional six strokes, and then centrifuged at 135,000 g at 4° C. for 45 min. The supernatant (DEA-soluble fraction containing extracellular and cytosolic proteins) was collected and neutralized with 10% of 0.5M of Tris-HCl (pH 6.8). Aβ1-40 and Aβ1-42 were individually measured by enzyme-linked immunosorbent assay (ELISA) from the soluble fraction using commercially available kits (Biolegend; #SIG-38954 and #SIG-38956, respectively) according to the manufacturer instructions.

Foxp3+ Tregs = experiment: Conditional ablation of Treg by DTx, confirmed by flow cytometry
Experimental: (§1) Mice were transcardially perfused with PBS, and tissues were treated as previously described (Baruch et al, 2013). Brains were dissected and the different brain regions were removed under a dissecting microscope (Stemi DV4; Zeiss) in PBS, and tissues were dissociated using the gentleMACS™ dissociator (Miltenyi Biotec). Choroid plexus tissues were isolated from the lateral, third and fourth ventricles of the brain, incubated at 37° C. for 45 min in PBS (with Ca^2+/Mg^2+) containing 400 U/ml collagenase type IV (Worthington Biochemical Corporation), and then manually homogenized by pipetting. Spleens were mashed with the plunger of a syringe and treated with ACK (ammonium chloride potassium) lysing buffer to remove erythrocytes. In all cases, samples were stained according to the manufacturers' protocols. All samples were filtered through a 70 μm nylon mesh, and blocked with anti-Fc CD16/32 (1:100; BD Biosciences). For intracellular staining of IFN-γ, the cells were incubated with […] (10 ng/ml; Sigma-Aldrich) and ionomycin (250 ng/ml; Sigma-Aldrich) for 6 h, and Brefeldin-A (10 μg/ml; Sigma-Aldrich) was added for the last 4 h. Intracellular labeling of cytokines was done with BD Cytofix/Cytoperm™ Plus fixation/permeabilization kit (cat. no. 555028). […] Cells were analyzed on an LSRII cytometer (BD Biosciences) using FlowJo software. […]

[2] = test system: choroid plexus leukocyte trafficking molecules (icam1, cxcl10, ccl2) and ifn-γ; experiment: Choroid plexus (CP) mRNA expression by RT-qPCR
Experimental: Total RNA of the hippocampal dentate gyrus (DG) was extracted with TRI Reagent (Molecular Research Center) and purified from the lysates using an RNeasy Kit (Qiagen). Total RNA of the choroid plexus was extracted using an RNA MicroPrep Kit (Zymo Research). mRNA (1 μg) was converted into cDNA using a High Capacity cDNA Reverse Transcription Kit (Applied Biosystems). The expression of specific mRNAs was assayed using fluorescence-based quantitative real-time PCR (RT-qPCR). RT-qPCR reactions were performed using Fast-SYBR PCR Master Mix (Applied Biosystems). Quantification reactions were performed in triplicate for each sample using the standard curve method. Peptidylprolyl isomerase A (ppia) was chosen as a reference (housekeeping) gene. The amplification cycles were 95° C. for 5 s, 60° C. for 20 s, and 72° C. for 15 s. […] For ifn-γ and ppia gene analysis, the cDNA was pre-amplified in 14 PCR cycles with non-random PCR primers, thereby increasing the sensitivity of the subsequent real-time PCR analysis, according to the manufacturer's protocol (PreAmp Master Mix Kit; Applied Biosystems). mRNA expression was determined using TaqMan RT-qPCR, according to the manufacturer's instructions (Applied Biosystems). All RT-qPCR reactions were performed and analyzed using StepOne software V2.2.2 (Applied Biosystems). […]

[3] = test system: IFN-γ-expressing immune cells in the CP; experiment: Flow cytometry of CP IFN-γ-expressing immune cells; settings: weekly-GA, 5XFAD AD-Tg mice, end of 1st week of regimen
Experimental: as §1

Molecule: CC1=C(/C=C/C(C)=C/C=C/C(C)=C/C(=O)O)C(C)(C)CCC1 [ATRA, All-trans retinoic acid]
- cerebral sAβ1-40 and sAβ1-42 levels [1]: increased

Molecule: Diphtheria toxin [DTx]
- depletion of the GFP-expressing FoxP3+ CD4+ Treg cells (Foxp3+ Tregs; blood and spleen, Foxp3.LuciDTR mice, DTx 8 ng/g i.p. daily 4 consecutive days): > 99%
- depletion of Foxp3+ cells (Foxp3+ Tregs; splenocytes from AD-Tg/Foxp3-DTR+/− mice, 1 day after last injection, DTx i.p. 4 days): ~99%
- CP mRNA expression of leukocyte trafficking molecules (icam1, cxcl10, ccl2) ([2]; AD-Tg/DTR+ vs DTx-treated AD-Tg/DTR− littermates, 1 day after last DTx injection): elevated mRNA expression

Molecule: Glatiramer acetate [GA]
- CP epithelial expression of leukocyte trafficking molecules (icam1, cxcl10, ccl2) ([2]; weekly-GA, AD-Tg mice, end of 1st or 4th week): upregulated epithelial expression of leukocyte trafficking molecules
- IFN-γ-producing cells at the CP [3]: increase
